The inhibition is the relative decrease from the control value, in per cent. As usually defined, the Ki is the equilibrium dissociation constant of an inhibitor or competing ligand from its target.

33 compounds from patent US8791132B2, “Compounds and methods for treatment of hypertension” (Medivation Technologies, Inc., priority 2011, dated 2014) can be followed below.

Experiment [1] has as its target T1, human recombinant adrenergic α2A receptor (Homo sapiens, UniProt P08913).
T1 construct: expressed in transfected cells; host or cells: insect Sf9 cells
T1 sequence (P08913 1-465): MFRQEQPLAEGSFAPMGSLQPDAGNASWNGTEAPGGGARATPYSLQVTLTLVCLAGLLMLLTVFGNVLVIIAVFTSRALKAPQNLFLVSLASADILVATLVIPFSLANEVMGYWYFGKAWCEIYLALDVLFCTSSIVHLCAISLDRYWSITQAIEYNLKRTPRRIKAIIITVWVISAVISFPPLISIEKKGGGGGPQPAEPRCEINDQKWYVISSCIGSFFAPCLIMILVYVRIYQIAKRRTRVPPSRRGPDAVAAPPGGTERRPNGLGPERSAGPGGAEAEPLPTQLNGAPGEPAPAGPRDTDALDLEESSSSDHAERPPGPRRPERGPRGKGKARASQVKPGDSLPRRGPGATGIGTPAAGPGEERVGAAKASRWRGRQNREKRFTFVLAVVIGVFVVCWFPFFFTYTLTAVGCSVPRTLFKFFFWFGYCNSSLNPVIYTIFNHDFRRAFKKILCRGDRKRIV
Kind of experiment: Radioligand binding, adrenergic α2A ([3H]MK-912). To be noted: for Percentage inhibition of ligand binding, Adrenergic α2A (0.1 μM): compound at 0.1 μM; for Percentage inhibition of ligand binding, Adrenergic α2A (0.1 μM) / Percentage inhibition of ligand binding, Adrenergic α2A: 0.1 µM. The procedure: To evaluate in radioligand binding assays the activity of compounds of the invention, human recombinant adrenergic α2A receptor expressed in insect Sf9 cells (Uhlen, S. et al, J. Pharmacol. Exp. Ther. 271:1558, 1994) in a modified Tris-HCl buffer (50 mM Tris-HCl, pH 7.4, 12.5 mM MgCl2, 2 mM EDTA) was used. Compounds of invention were incubated with 1 nM [^3H]MK-912 for 60 min at 25° C. MK912 is (2S-trans)-1,3,4,5′,6,6′,7,12b-octahydro-1′,3′-dimethyl-spiro[2H-benzofuro[2,3-a]quinolizine-2,4′(1′H)-pyrimidin]-2′(3′H)-one hydrochloride. Non-specific binding was estimated in the presence of 10 μM WB-4101 (2-(2,6-Dimethoxyphenoxyethyl)aminomethyl-1,4-benzodioxane hydrochloride). Receptor proteins were filtered and washed, the filters were then counted to determine [^3H]MK-912 specifically bound. […] Compounds of the invention were tested in this biochemical assay and percent inhibition of specific binding was determined. Biochemical assay results are presented as the percent inhibition of specific binding in Table B1.

Experiment [2] has as its target T2, human recombinant adrenergic α2B receptor (Homo sapiens, UniProt P18089).
T2 construct: expressed in transfected cells; host or cells: CHO-K1
T2 sequence (P18089 1-450): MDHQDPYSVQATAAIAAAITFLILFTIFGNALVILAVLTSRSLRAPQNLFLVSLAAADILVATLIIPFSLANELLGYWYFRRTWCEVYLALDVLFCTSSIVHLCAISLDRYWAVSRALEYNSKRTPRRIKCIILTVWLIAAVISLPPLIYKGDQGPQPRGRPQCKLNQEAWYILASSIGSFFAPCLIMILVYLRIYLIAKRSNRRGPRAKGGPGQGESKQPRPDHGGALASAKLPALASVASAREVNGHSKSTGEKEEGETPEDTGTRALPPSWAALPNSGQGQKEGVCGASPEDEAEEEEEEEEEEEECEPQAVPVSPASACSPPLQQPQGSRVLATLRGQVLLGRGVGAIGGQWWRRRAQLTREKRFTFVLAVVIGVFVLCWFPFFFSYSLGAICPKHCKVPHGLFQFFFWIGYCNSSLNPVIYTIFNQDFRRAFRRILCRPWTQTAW
Kind of experiment: Radioligand binding, adrenergic α2B ([3H]Rauwolscine). The note with it: for Ki: read-out: Ki α2B; for inhibition at 0.03 µM: read-out: Percentage inhibition of ligand binding, Adrenergic α2B (0.03 μM), compound at 0.03 μM; for Percentage inhibition of ligand binding, Adrenergic α2B (0.03 μM): compound at 0.03 μM; for Percentage inhibition of ligand binding, Adrenergic α2B: 0.03 μM compound; for Percentage inhibition of ligand binding, Adrenergic α2B (0.03 μM) / Percentage inhibition of ligand binding, Adrenergic α2B: 0.03 µM. As to the method:
To evaluate in radioligand binding assays the activity of compounds of the invention, human recombinant adrenergic α2B receptor expressed in Chinese hamster ovary (CHO) K1 cells (Uhlen, S. et al, Eur. J. Pharmacol. 343(1):93, 1998) in a modified Tris-HCl buffer (50 mM Tris-HCl, pH 7.4, 12.5 mM MgCl2, 1 mM EDTA, 0.2% BSA) was used. Compounds of the invention were incubated with 2.5 nM [3H]Rauwolscine for 60 min at 25° C. Non-specific binding was estimated in the presence of 10 μM Prazosin. Receptor proteins were filtered and washed, the filters were then counted to determine [3H]Rauwolscine specifically bound. […] Compounds of the invention were tested in this biochemical assay and percent inhibition of specific binding was determined. Biochemical assay results are presented as the percent inhibition of specific binding in Table B1.

Where [3] appears, read: read-out: Percentage inhibition of ligand binding, Adrenergic α2A (0.1 μM), compound at 0.1 μM, [3H]MK-912, repeat datapoints each shown.
Where [4] appears, read: [3H]Rauwolscine, repeat datapoints each shown.
The mark [5] stands for this setting: read-out: Percentage inhibition of ligand binding, Adrenergic α2B (0.1 μM), compound at 0.1 μM, [3H]Rauwolscine, repeat datapoints each shown.
Where [6] appears, read: [3H]MK-912, repeat datapoints each shown.
Setting [7] is: 0.1 μM compound, read-out: Percentage inhibition of ligand binding, Adrenergic α2B.

Where two headings read alike, the source gives them in different places.

In the case of `Cc1ccc2c(c1)c1c(n2CC(N=[N+]=[N-])c2ccncc2)CCN(C)C1` (racemic) [V-1, 5-(2-azido-2-(pyridin-4-yl)ethyl)-2,3,4,5-tetrahydro-2,8-dimethyl-1H-pyrido[4,3-b]indole], the inhibition at 0.1 µM in experiment [1] (setting [3]) turned out to be 35%. In addition, in experiment [2], the Ki came out at 0.51 nM. Moreover, the inhibition at 0.03 µM in experiment [2] (setting [4]) came to 102%.
In the case of `Cc1ccc2c(c1)c1c(n2C(C)C(O)c2ccncc2)CCN(C)C1` (single isomer, unassigned) [127a], the Ki in experiment [2] stood at 15.1 nM. Moreover, the inhibition at 0.03 µM in experiment [2] (setting [4]) is 43%. Moreover, in experiment [2] (setting [5]), the inhibition at 0.1 µM worked out at 74%.
Consider `Cc1cnc2c(c1)c1c(n2CC(O)c2ccc(F)cc2)CCN(C)C1` (single isomer, unassigned) [136b], for which the “Percentage inhibition of ligand binding, Adrenergic α2A (0.1 μM)” value (from here on “Percentage inhibition … (0.1 μM)”) in experiment [1] (setting [6]) was 21%. For the same compound, the “Percentage inhibition of ligand binding, Adrenergic α2B (0.03 μM)” value (shortened to “Percentage inhibition … (0.03 μM)”) in experiment [2] (setting [4]) is reported as 69%.
Turning to `Cc1ccc2c(c1)c1c(n2CC(O)c2ccc(C#N)cc2)CCN(C)C1` (single isomer, unassigned) [142b], in experiment [1] (setting [6]), the “Percentage inhibition … (0.1 μM)” value turned out to be 63%.
With `Cc1cnc2c(c1)c1c(n2CC(C)(O)c2ccc(C)nc2)CCN2CCCC12` (single isomer, unassigned) [148d], the “Percentage inhibition … (0.1 μM)” value in experiment [1] (setting [6]) is recorded as −11%. For the same compound, in experiment [2] (setting [4]), the “Percentage inhibition … (0.03 μM)” value was 11%.
Regarding `Cc1ccc2c(c1)c1c(n2CC(c2ccncc2)N2CCCC2)CCN(C)C1` (single isomer, unassigned) [152a], in experiment [1] (setting [3]), the inhibition at 0.1 µM is 17%.
As for `Cc1ccc2c(c1)c1c(n2CC(N)c2ccncc2)CC2CCC1N2C` (single isomer, unassigned) [155a], in experiment [1] (setting [6]), the “Percentage inhibition … (0.1 μM)” value was −1%.
Regarding `C/C(=C\n1c2c(c3cc(C)ccc31)C1CCCCN1CC2)c1ccc(F)cc1` (single isomer, unassigned) [199a], the “Percentage inhibition … (0.1 μM)” value in experiment [1] (setting [6]) was 96%. The “Percentage inhibition … (0.03 μM)” value in experiment [2] (setting [4]) is on record as 94%.
The matching figures for `C/C(=C\n1c2c(c3cc(C)ccc31)C1CCCCN1CC2)c1ccc(F)cc1` (single isomer, unassigned) [199b]: 61% and 27%.
`CN1CCc2c(n(CC(O)c3ccc(F)c(F)c3)c3ccc(Cl)cc23)CC1` (single isomer, unassigned) [339b]: the “Percentage inhibition of ligand binding, Adrenergic α2A” value in experiment [1] (0.1 μM compound) was determined as 64%.
As to `OCCN1CCc2c(c3cc(Cl)ccc3n2CC(O)c2cccnc2)C1` (single isomer, unassigned) [II-94a], the “Percentage inhibition of ligand binding, Adrenergic α2A” value in experiment [1] (0.1 μM compound) came out at 0%. For the same compound, in experiment [2], the “Percentage inhibition of ligand binding, Adrenergic α2B” value came to 8%.
On to `Cc1cnc2c(c1)c1c(n2CC(O)c2ccc(C)nc2)CCN(C)C1` (single isomer, unassigned) [II-100a], for which the inhibition at 0.1 µM in experiment [1] (0.1 μM compound, read-out: Percentage inhibition of ligand binding, Adrenergic α2A) was 7%. In addition, the “Percentage inhibition of ligand binding, Adrenergic α2B” value in experiment [2] is listed as 12%.
`CC(O)(Cn1c2c(c3cc(Cl)ccc31)CN(C1CCC1)CC2)c1cccnc1` (single isomer, unassigned) [II-118a]: in experiment [1] (setting [3]), the inhibition at 0.1 µM stood at 3%. Also, the “Percentage inhibition … (0.03 μM)” value in experiment [2] (setting [4]) came to 27%.
In the case of `Cc1ccc2c(c1)c1c(n2CC(C)(O)c2cccnc2)CCN(C)C1C` (single isomer, unassigned) [II-152a], the “Percentage inhibition … (0.03 μM)” value in experiment [2] (setting [4]) worked out at 93%.
`C/C(=C\n1c2c(c3cc(C)ccc31)C1CCCN1CC2)c1ccc(C)nc1` (stereo not drawn) [193a, 10-methyl-7-(2-(6-methylpyridin-3-yl)prop-1-enyl)-2,3,5,6,7,11c-hexahydro-1H-indolizino[7,8-b]indole]: in experiment [2] (setting [4]), the inhibition at 0.03 µM amounted to 98%.
Regarding `Cc1ccc2c(c1)c1c(n2CCc2ccc(C(F)(F)F)nc2)C(C)(C)CN(C)C1` [II-40], in experiment [2] (setting [7]), the inhibition at 0.1 µM stood at 36%.
The same measure, in the same setting: then `C/C(=C\n1c2c(c3cc(C)ccc31)CN(C)CC2(C)C)c1ccc(C)nc1` [II-61], with 47%; and `C/C(=C\n1c2c(c3cc(C)ccc31)CN(C)CC2(C)C)c1ccncc1` [II-70], with 34%; and `C/C(=C\n1c2c(c3cc(C)ccc31)CN(C)CC2)c1cnccc1C` [II-76, (E)-2,8-dimethyl-5-(2-(4-methylpyridin-3-yl)prop-1-en-1-yl)-2,3,4,5-tetrahydro-1H-pyrido[4,3-b]indole], with 103%.
As to `OCCN1CCc2c(c3cc(Cl)ccc3n2CC(O)c2ccncc2)C1` (stereo not drawn) [II-93b], the “Percentage inhibition of ligand binding, Adrenergic α2A” value in experiment [1] (0.1 μM compound) is reported as 4%.
On to `Cc1ccc2c(c1)c1c(n2C(C)C(O)c2ccncc2)CCN(C)C1` (stereo not drawn) [II-98b], for which the “Percentage inhibition of ligand binding, Adrenergic α2B” value in experiment [2] was 5%.
As for `Cc1ccc(CCn2c3c(c4cccnc42)CN(C)CC3(C)C)cn1` [II-133], the inhibition at 0.1 µM in experiment [2] (setting [5]) is -5%.
On to `CN1Cc2c(n(CCc3ccc(C(F)(F)F)nc3)c3ncccc23)C(C)(C)C1` [II-215], for which, in experiment [2] (setting [5]), the inhibition at 0.1 µM was -5%.
With `FC(F)(F)c1ccc(CCn2c3c(c4cccnc42)CN2CCCC2C3)cn1` (stereo not drawn) [II-236], the inhibition at 0.1 µM in experiment [2] (setting [5]) was -4%.
Consider `Cc1cnc2c(c1)c1c(n2CCc2ccc(C(F)(F)F)nc2)CCN2CCCC12` (stereo not drawn) [II-238], for which the inhibition at 0.1 µM in experiment [2] (setting [5]) amounted to 98%.
On the same count and under the same terms, then `Cc1cnc2c(c1)c1c(n2CCc2ccc(C(F)(F)F)nc2)CC2CCCN2C1` (stereo not drawn) [II-239], with 17%; and `FC(F)(F)c1ccc(CCn2c3c(c4cccnc42)C2CCCN2CC3)cn1` (stereo not drawn) [IV-2], with 50%.
As for `Cc1ccc2c(c1)c1c(n2CCc2ccccc2F)CCN(C)C1` [compound 204], the Ki in experiment [1] is 2.48 nM. Moreover, the inhibition at 0.1 µM in experiment [1] (setting [3]) was found to be 87%; in experiment [2] (setting [5]), 107%.
On to `Cc1ccc2c(c1)c1c(n2CCC2CCCCC2)CCN(C)C1` [compound 205], for which the results for the inhibition at 0.1 µM in experiment [1] (setting [3]) and in experiment [2] (setting [5]) were 69% and 70%, respectively.
On the same counts, the results for `CN1CCc2c(c3cc(C(F)(F)F)ccc3n2CCc2ccccc2)C1` [compound 209] are 80% and 84%.
The matching figures for `Cc1ccc(CCn2c3c(c4cc(C(F)(F)F)ccc42)CN(C)CC3)cc1` [compound 210]: 88% and 63%.
`CN1CCc2c(c3cc(Cl)ccc3n2CCC2CCCCC2)C1` [compound 212]: the inhibition at 0.1 µM amounted to 66% in experiment [1] (setting [3]) and 64% in experiment [2] (setting [5]).
The matching figures for `CN1CCc2c(c3ccc(Cl)cc3n2CCc2ccccc2)C1` [compound 215]: 97% and 102%.
